# Measured values as given in patent publication US10688077B2, “Inflammasome activation in myelodysplastic syndromes” (H. Lee Moffitt Cancer Center and Research Institute, Inc., priority 2015, dated 2020).
# Legend:
# [1] = tested on: SF3B1-K700E mutant-expressing BM cells; assay: ASC staining to detect inflammasome formation by flow cytometry, SF3B1-K700E BM cells; format: cell-based, mice; conditions: treated 24 hours
# Method: Staining was carried out as described ([…], et al. J Immunol. 2015 194(1):455-62). Briefly, cell pellets were resuspended in 1 mL of prewarmed BD Permeabilization Buffer III, and incubated on ice for 30 minutes. Cells were washed 2× with staining buffer. Following washing, cells were stained with rabbit-anti-ASC primary antibodies at a 1:1500 dilution and incubated for 90 minutes. Cells were washed, stained with secondary antibodies at a dilution of 1:1500, and incubated for 45 minutes. Cells were washed, and sample acquisitions were carried out using a BD LSR II flow cytometer and FACSDiva software.
# normal BM-MNC [2] = assay: Nuclear β-catenin confocal microscopy in normal BM-MNC; format: cell-based, human
# Method: (§1) MDS and normal donor BM-MNC and mouse BM cells were stained with 30×FAM-FLICA® Caspase-1 solution at a ratio of 1:30 for 2 hours at 37° C. Cells were washed and cytospins were generated using a 5 minutes centrifugation at 450 rpm. Slides were fixed at 37° C. for 10 minutes using BD Cytofix Fixation Buffer (BD Biosciences), and subsequently washed using PBS. Cells were permeabilized with 0.1% Triton X-100/2% BSA in PBS for 15 minutes at room temperature. After washing with PBS, cells were blocked using 2% BSA in PBS for 30 minutes at room temperature, and washed again. Cells were incubated with the appropriate primary antibody overnight (1:400 for NLRP3, 1:20 for β-catenin) at 4° C. The next day, cells were washed with PBS and incubated with the appropriate secondary antibodies (1:500) for 1 hour at room temperature. After washing, cells were covered with ProLong Gold Antifade Reagent with DAPI prior to the addition of a coverslip (Life Technologies). Co-localization of a-caspase-1 with NLRP3 inflammasome complexes was assessed using a Leica TCS SP5 AOBS Laser Scanning Confocal microscope (Leica Microsystems). Analysis of the inflammasome images was performed with Definiens Developer 2.0 (Definiens AG). The software was used to segment cells based on brightness and size thresholds, followed by a watershed segmentation algorithm. […]
# [3] = tested on: SF3B1-K700E mutant-expressing BM cells; assay: Nuclear β-catenin confocal microscopy, SF3B1-K700E BM cells; format: cell-based, mice; conditions: treated 24 hours
# Method: as §1
# [4] = tested on: U2AF1 S34F mutant expressing TF-1 cells; assay: Nuclear β-catenin confocal microscopy in U2AF1-S34F mutant cells; format: cell-based; conditions: treated 24 hours prior to staining
# [5] = tested on: SF3B1-K700E-expressing mutant BM cells; assay: ROS detection by flow cytometry, SF3B1-K700E BM cells; format: cell-based, mice
# Text: (§2) ROS were detected using CM-H2DCFDA and CellROX® Deep Red Reagent according to manufacturer's protocol (Life Technologies).
# normal BM-MNC [6] = assay: a-caspase-1/NLRP3 confocal microscopy in normal BM-MNC treated with rhS100A9; format: cell-based, human; conditions: 5 pig/mL rhS100A9, 24 hours
# Method: (§3) MDS and normal donor BM-MNC and mouse BM cells were stained with 30×FAM-FLICA® Caspase-1 solution at a ratio of 1:30 for 2 hours at 37° C. Cells were washed and cytospins were generated using a 5 minutes centrifugation at 450 rpm. Slides were fixed at 37° C. for 10 minutes using BD Cytofix Fixation Buffer (BD Biosciences), and subsequently washed using PBS. Cells were permeabilized with 0.1% Triton X-100/2% BSA in PBS for 15 minutes at room temperature. After washing with PBS, cells were blocked using 2% BSA in PBS for 30 minutes at room temperature, and washed again. Cells were incubated with the appropriate primary antibody overnight (1:400 for NLRP3, 1:20 for β-catenin) at 4° C. The next day, cells were washed with PBS and incubated with the appropriate secondary antibodies (1:500) for 1 hour at room temperature. After washing, cells were covered with ProLong Gold Antifade Reagent with DAPI prior to the addition of a coverslip (Life Technologies). Co-localization of a-caspase-1 with NLRP3 inflammasome complexes was assessed using a Leica TCS SP5 AOBS Laser Scanning Confocal microscope (Leica Microsystems). Analysis of the inflammasome images was performed with Definiens Developer 2.0 (Definiens AG). The software was used to segment cells based on brightness and size thresholds, followed by a watershed segmentation algorithm. Intensity values and Pearson's correlation coefficient were extracted from the segmented cells. For β-catenin image analysis, confocal images were imported into Definiens Tissue Studio v3.0, 64 Dual in .tif format. Cells were separated from background using the RGB thresholds. Nuclei were identified by setting thresholds in the DAPI channel. Typical cells averaged 60 microns. The red intensity (β-catenin) in the nucleus and cytoplasm was established by setting thresholds to low, medium and high in the red channel on a scale of 0-255 in the red channel.
# U937 cells [7] = assay: S100A9 flow cytometry experiments in U937 cells (a-caspase-1/annexin-V); format: cell-based
# Method: Monocytic U937 cells were treated with the indicated concentrations of rhS100A9 for 24 hours, or with 5 μg/mL rhS100A9 for the indicated time points. Subsequently, cells were stained with 30×FAM-FLICA® Caspase-1 solution at a ratio of 1:30 for 2 hours at 37° C. Cells were washed, resuspended in 1× binding buffer, and stained with Annexin-V:PE at a dilution of 1:30 for 15 minutes at room temperature. 1× binding buffer was added to a final volume of 350 μL. Sample acquisitions were carried out using a BD FACSCalibur flow cytometer (BD Biosciences). Data were analyzed using FlowJo 9.7.5 software.
# U937 cells [8] = assay: ROS detection by flow cytometry in U937 cells; format: cell-based; conditions: 5 μg/mL, 24 hours, compared to untreated cells
# Text: as §2
# [9] = tested on: BM cells isolated from WT mice; assay: a-caspase-1/NLRP3 confocal microscopy in WT mouse BM cells treated with rhS100A9; format: cell-based; conditions: 5 μg/mL, 24 hours
# Method: as §3
# U937 cells [10] = assay: Pore formation, ethidium bromide uptake in U937 cells; format: cell-based; conditions: 5 μg/mL rhS100A9, 12.5 μg/mL ethidium bromide
# normal BM-MNC [11] = assay: qPCR of pyroptosis-associated genes in normal BM-MNC treated with rhS100A9; format: cell-based, human; conditions: 1 μg/mL, 24 hours, n=2
# Method: PCR RNA was isolated from BM-MNC using the RNeasy Mini Kit (Qiagen). cDNA was produced using the iScript cDNA Synthesis Kit (Bio-Rad). Sequences for primers can be found in Table 1. GAPDH mRNA was used for transcript normalization. cDNA was amplified using the iQ SYBR Green Supermix and the CFX96 Real-Time PCR Detection System (Bio-Rad). PCR conditions were as follows: 10 minutes at 95° C., followed by 40 cycles of amplification (15 seconds at 95° C. and 1 minute at 60° C.). Relative gene expression was calculated using the […] method.
# U937 cells [12] = assay: Nuclear β-catenin confocal microscopy in U937 cells; format: cell-based; conditions: 5 μg/mL, 24 hours, compared to untreated cells
# U937 cells [13] = assay: NLRP3 inflammasome confocal microscopy in U937 cells; format: cell-based; conditions: 5 μg/mL, 24 hours
# U937 cells [14] = assay: Comet assay (DNA damage) in U937 cells; format: cell-based; conditions: 5 μg/mL, 24 hours, compared to untreated cells
# Method: Monocytic U937 cells were treated with 5 μg/mL rhS100A9 for 24 hr.
# DNA damage was measured by single cell gel electrophoresis using alkaline CometAssay® according to manufacturer's protocol (Trevigen Inc.).
compound,measurement,setting,value
"CC(=O)N[C@@H](CS)C(=O)O [NAC, N-acetylcysteine]",inflammasome formation (ASC oligomerization),[1],significantly reduced
same,S100A9-triggered nuclear translocation of β-catenin,normal BM-MNC [2]; S100A9 treated normal BM-MNC,abolished
same,percentage of cells with elevated levels of nuclear β-catenin,[3],significantly reduced
same,β-catenin activation (nuclear β-catenin),[4],effectively reduced β-catenin activation
same,ROS MFI,[5],extinguished below the level of WT controls
same,mean percentage of ROS+ cells,[5],extinguished below the level of WT controls
"rhS100A9: recombinant human S100A9, DAMP/alarmin protein, TLR4 and CD33 ligand",a-caspase-1 levels induced,normal BM-MNC [6],2.5 fold
same,formation of NLRP3 inflammasomes induced,normal BM-MNC [6],2.9 fold
same,NLRP3 levels induced,normal BM-MNC [6]; p=0.064,47.1 fold
same,activation of caspase-1,"U937 cells [7]; 5 μg/mL, over time",time-dependent increase
same,fraction of pyroptotic cells,"U937 cells [7]; increasing concentrations, 24 hours",concentration-dependent increase
same,levels of nuclear β-catenin,"normal BM-MNC [2]; 5 μg/mL, 24 hours, compared to controls",elevated levels
same,increase in the mean percentage of ROS-positive cells,U937 cells [8],2.9 fold
same,inflammasome complexes,[9]; p=0.023,marked induction
same,MFI of NLRP3,"[9]; versus controls, p=0.017",significantly increased
same,MFI of a-caspase-1,"[9]; versus controls, p=7.5×10^−3",significantly increased
same,uptake of ethidium bromide,U937 cells [10],rapid and substantial uptake
same,expression of pyroptosis-associated genes,normal BM-MNC [11],significantly up-regulated
same,levels of nuclear (activated) β-catenin,U937 cells [12],marked increases
same,levels of NLRP3 inflammasome complexes,U937 cells [13],markedly increased
same,increase in DNA damage,U937 cells [14],4.1 fold
c1ccc2c(c1)[I+]c1ccccc1-2 [DPI],inflammasome formation (ASC oligomerization),[1],significantly reduced
same,percentage of cells with elevated levels of nuclear β-catenin,[3],significantly reduced
same,β-catenin activation (nuclear β-catenin),[4],effectively reduced β-catenin activation
same,ROS MFI,[5],extinguished below the level of WT controls
same,mean percentage of ROS+ cells,[5],extinguished below the level of WT controls
